According to PubChem BioAssay (NCI):
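Test compounds were applied to cells in 96-well plates for 48 hours at 5 doses. The concentration for full growth arrest is given as TGI.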

How the values were obtained:
Experiment in all cases: DTP human tumour cell line panel, 48 h
HOP-62 NSCLC = system: HOP-62 NSCLC
SK-OV-3 ovarian = system: SK-OV-3 ovarian
UACC-257 melanoma = system: UACC-257 melanoma
SF-268 CNS = system: SF-268 CNS
SNB-78 CNS = system: SNB-78 CNS
SK-MEL-5 melanoma = system: SK-MEL-5 melanoma
MOLT-4 leukemia = system: MOLT-4 leukemia
LXFL 529 NSCLC = system: LXFL 529 NSCLC
LOX IMVI melanoma = system: LOX IMVI melanoma
T-47D breast = system: T-47D breast

| Compound | TGI (HOP-62 NSCLC) [µM] | TGI (SK-OV-3 ovarian) [µM] | TGI (UACC-257 melanoma) [µM] | TGI (SF-268 CNS) [µM] | TGI (SNB-78 CNS) [µM] | TGI (SK-MEL-5 melanoma) [µM] | TGI (MOLT-4 leukemia) [µM] | TGI (LXFL 529 NSCLC) [µM] | TGI (LOX IMVI melanoma) [µM] | TGI (T-47D breast) [µM] |
| --- | --- | --- | --- | --- | --- | --- | --- | --- | --- | --- |
| Cc1ccc(NC(=O)CC2C(=O)Nc3ccccc3S2=O)c(C)c1 (configuration not stated) | 38.1 | 33.9 | > 100 | 65.3 | 47.6 | 38.1 | > 52.5 | 61.6 | > 87.7 |  |
| Nc1nc(=Nc2ccccc2)ss1 | > 100 | > 100 | > 100 | > 100 | > 100 | > 100 | > 100 | > 100 | > 100 |  |
| CCCN1C(=O)CNC(=O)c2[nH]cnc21 | > 100 | > 100 | > 100 | > 100 | > 100 | > 100 | > 100 | > 100 | > 100 |  |
| Cc1ccc(N2C(=O)C(Cl)=C(Cl)C2=O)cc1 | > 100 | > 100 | 63.9 | 37.8 | 54.9 | > 100 | 46.5 | 38.5 | 55.5 |  |
| CCCCCCCCCCCCC(CCCCCCCCCCCC)OP(=O)(O)O | > 100 | > 100 | > 100 | > 100 | > 100 | > 100 | > 100 | > 100 | > 100 |  |
| Cn1sc2ccccc2c1=S | 24.5 | > 59.8 | 21.3 | 9.79 | 31 | 25.3 | 14.1 | 27.1 | 4.5 |  |
| C=C(CN(C)C)C(=O)c1ccc(Oc2ccccc2)cc1 | 43.7 | 47.9 | 17.7 | 32.5 | 41.9 | 19.8 | 2.05 | 5.04 | 28.5 | 13.7 |
| C#Cc1cc(CN(CC(=O)OC(C)(C)C)CC(=O)OC(C)(C)C)nc(CN(CC(=O)OC(C)(C)C)CC(=O)OC(C)(C)C)c1 | 24.1 | 51 | 9.15 | 44.8 | 70.4 | 11.3 | 6.33 | 11.4 | 6.03 |  |
| CCOC(=O)NC1CC2CCC1(OC)C=C2C (configuration not stated) | > 100 | > 100 | > 100 | > 100 | > 100 | > 100 | > 100 | > 100 | > 100 |  |
